From US20230087825A1, “SMARCA DEGRADERS AND USES THEREOF” (Kymera Therapeutics, Inc., priority 2019, published 2023) come the findings set out here.

The target of this experiment is T1, SMARCA2 (Homo sapiens, UniProt P51531).
T1 construct: host or cells: NCI-H1299
In words: MSD SMARCA2 degradation in NCI-H1299 cell line. In kind it is cell-based. Conditions: NCI-H1299 cells; percentage of SMARCA2 degradation after 24 hours. The protocol:
Example 12. MSD SMARCA2 Degration in NCI-H1299 Cell Line
Cell Culture: Cells were cultured in exponential growth phase.
Compound Preparation and Treatment: NCI-H1299 cells were seeded into the 96-well plate at 4.0*10^4 cells per 100 ul per well. Incubate the plate in the incubator overnight. The next day, compounds were diluted to designed stock concentration by TECAN, then perform a 3 fold, 9-point dilution via transferring 15 uL compound into 30 μL DMSO using Apricot. 200 nL diluted compound from compound source plate were transferred into the 96-intermediate plate as designated by using Echo550, followed with 100 ul culture medium to make the 2× compound solution. Cell plate were changed with 80 ul of fresh culture medium and 80 ul of 2× compound solution was added into the well to achieve the final designed concentration. Cell plate was then shaken at 720 rpm for 5 min and incubated for 24 hours in the incubator.
Sample Preperation: Media was aspirated from the cultures and the plate was washed with PBS twice. […]
MSD Procedure: The MSD plate was coated with 40 ul cell lysate and incubated at 4° C. overnight. […] MSD plate was washed 3 times with 150 ul 1×TBST per well and 2× MSD reading buffer was added, 150 ul per well, and diluted from 4× with water. MSD instrument was then read.
Data Analysis: The percentage of relative level of SMARCA2 level was calculated following equation below. […]

Structures are written as SMILES.

T1 sequence (P51531 whole entry): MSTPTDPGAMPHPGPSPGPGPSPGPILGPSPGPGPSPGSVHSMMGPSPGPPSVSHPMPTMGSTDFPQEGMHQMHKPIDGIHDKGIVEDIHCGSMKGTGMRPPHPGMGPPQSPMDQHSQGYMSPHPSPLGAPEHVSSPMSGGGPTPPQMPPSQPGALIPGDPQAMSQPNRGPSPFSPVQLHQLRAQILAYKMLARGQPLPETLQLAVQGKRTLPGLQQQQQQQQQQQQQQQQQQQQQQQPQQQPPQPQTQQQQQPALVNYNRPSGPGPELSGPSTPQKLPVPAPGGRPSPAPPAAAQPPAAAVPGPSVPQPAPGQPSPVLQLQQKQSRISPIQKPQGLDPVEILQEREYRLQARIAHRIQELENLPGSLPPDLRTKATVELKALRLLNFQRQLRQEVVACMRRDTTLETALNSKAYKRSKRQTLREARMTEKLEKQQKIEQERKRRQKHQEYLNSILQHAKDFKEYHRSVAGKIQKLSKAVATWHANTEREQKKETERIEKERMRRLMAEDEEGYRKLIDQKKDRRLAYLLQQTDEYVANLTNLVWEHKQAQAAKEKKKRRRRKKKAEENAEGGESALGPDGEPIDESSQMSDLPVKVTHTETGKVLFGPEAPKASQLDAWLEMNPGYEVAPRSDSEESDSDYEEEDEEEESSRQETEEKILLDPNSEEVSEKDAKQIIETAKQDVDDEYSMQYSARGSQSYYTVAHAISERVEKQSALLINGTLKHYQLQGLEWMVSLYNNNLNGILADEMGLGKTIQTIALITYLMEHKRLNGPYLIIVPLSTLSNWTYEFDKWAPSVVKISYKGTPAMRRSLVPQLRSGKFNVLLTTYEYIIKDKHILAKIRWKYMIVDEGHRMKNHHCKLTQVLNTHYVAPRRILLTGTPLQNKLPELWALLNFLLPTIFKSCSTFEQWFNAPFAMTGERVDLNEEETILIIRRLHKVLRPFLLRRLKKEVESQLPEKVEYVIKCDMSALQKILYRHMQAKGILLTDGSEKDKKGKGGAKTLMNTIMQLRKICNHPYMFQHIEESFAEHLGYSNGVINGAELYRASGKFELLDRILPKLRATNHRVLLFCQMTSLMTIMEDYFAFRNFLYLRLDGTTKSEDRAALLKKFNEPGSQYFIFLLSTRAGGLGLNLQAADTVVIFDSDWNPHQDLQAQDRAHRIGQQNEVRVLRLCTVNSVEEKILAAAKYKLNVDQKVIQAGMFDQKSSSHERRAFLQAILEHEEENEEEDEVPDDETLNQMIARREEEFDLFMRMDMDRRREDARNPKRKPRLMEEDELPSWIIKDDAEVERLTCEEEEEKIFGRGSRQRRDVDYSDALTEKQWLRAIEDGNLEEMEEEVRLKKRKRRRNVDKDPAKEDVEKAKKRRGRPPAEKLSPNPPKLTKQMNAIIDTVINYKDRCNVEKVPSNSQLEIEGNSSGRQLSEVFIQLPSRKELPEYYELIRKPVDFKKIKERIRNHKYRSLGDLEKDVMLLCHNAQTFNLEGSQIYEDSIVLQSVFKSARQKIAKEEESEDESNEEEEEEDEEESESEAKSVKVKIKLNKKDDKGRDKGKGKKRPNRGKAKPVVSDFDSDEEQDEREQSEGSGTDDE

A word on the Dmax: it is the greatest extent of degradation seen. `Nc1nnc(-c2ccccc2O)cc1-c1ccc(CN2CCN(CCCCCc3cccc4c3c3ccccc3n4C3CCC(=O)NC3=O)CC2)cc1` (centres unmarked) [I-7] returned a Dmax of 70 to 90%. The result for `Nc1nnc(-c2ccccc2O)cc1-c1ccc(CN2CCN(CCCCOCCCc3ccc4c(c3)c3ccccc3n4C3CCC(=O)NC3=O)CC2)cc1` (centres unmarked) [I-10] reads 50 to 70%.
